Test results published in patent US9376418B2, “Substituted pyridine spleen tyrosine kinase (SYK) inhibitors” (Merck Sharp & Dohme Corp., priority 2012, dated 2016).
pIC50: −log10 of the molar value.

Each molecule was assayed against T1, recombinant human GST-SYK (Homo sapiens, UniProt P43405) (assay: Homogeneous Time-Resolved Fluorescence (HTRF) assay for the recombinant human Syk enzyme). Conditions: HTRF assay, recombinant human GST-SYK; IC50 given as class symbols; read-out: rhSYK Activity.
T1 construct: purchased Carna Biosciences 08-176
Format: biochemical
Procedure: Homogeneous Time-Resolved Fluorescence (HTRF) Assay for the Recombinant Human Syk Enzyme
A recombinant GST-hSYK fusion protein was used to measure potency of compounds to inhibit human Syk activity. The recombinant human GST-SYK (Carna Biosciences #08-176) ([…]) was incubated with various concentrations of the inhibitor diluted in DMSO (0.1% final concentration) for 10 minutes at room temperature in 15 mM Tris-HCl (pH 7.5), 0.01% tween 20, 2 mM DTT in 384 well plate format. To initiate the reaction the biotinylated substrate peptide (250 nM final concentration) that contains the phosphorylation site for Syk was added with magnesium (5 mM final concentration) and ATP (25 μM final concentration). Final volume of the reaction was 10 μL. Phosphorylation of the peptide was allowed to proceed for 45′ at room temperature. To quench the reaction and detect the phosphorylated product, 2 nM of a Europium-anti-phosphotyrosine antibody (Perkin Elmer #AD0161) and 70 nM SA-APC (Perkin-Elmer #CR130-100) were added together in 15 mM Tris pH 7.5, 40 mM EDTA, 0.01% tween 20. Final volume of the quenching solution was 10 μL. The resulting HTRF signal was measured after 30 minutes on an EnVision (Perkin-Elmer) reader using a time-resolved fluorescence protocol.
`Cc1cc(Nc2nccc(C(F)(F)F)n2)cc(-c2ccc(N3CCCC3C(=O)O)nc2)c1` (racemic) [Example 7.119, 1-[5-(3-methyl-5-{[4-(trifluoromethyl)pyrimidin-2-yl]amino}phenyl)pyridin-2-yl]proline] was tested, and the pIC50 was > 7.00.
With `Cc1cc(Nc2nccc(C(F)(F)F)n2)cc(-c2ccnc(N(C)CCO)c2)c1` [Example 15.45, 2-{methyl[4-(3-methyl-5-{[4-(trifluoromethyl)pyrimidin-2-yl]amino}phenyl)pyridin-2-yl]amino}ethanol] the pIC50 was > 7.00.
`Cc1cc(Nc2nccc(C(F)(F)F)n2)cc(-c2ccc(NS(=O)(=O)N3CCCCC3)nc2)c1` [Example 2.62, N-[5-(3-methyl-5-{[4-(trifluoromethyl)pyrimidin-2-yl]amino}phenyl)pyridin-2-yl]piperidine-1-sulfonamide] gave a pIC50 of 6.00 to 7.00.
For `Cc1cc(Nc2nccc(C(F)(F)F)n2)cc(-c2ccc(CC(F)(F)C(=O)O)nc2)c1` [Example 24.3, 2,2-Difluoro-3-[5-(3-methyl-5-{[4-(trifluoromethyl)pyrimidin-2-yl]amino}phenyl)pyridin-2-yl]propanoic acid], the pIC50 was > 7.00.
`Cc1cc(Nc2nccc(C(F)(F)F)n2)cc(-c2ccc(C(=O)N(C)CCS(C)(=O)=O)nc2)c1` [Example 16.58, N-methyl-N-[2-(methylsulfonyl)ethyl]-5-(3-methyl-5-{[4-(trifluoromethyl)pyrimidin-2-yl]amino}phenyl)pyridine-2-carboxamide] was tested, and the pIC50 was > 7.00.
With `Cc1cc(Nc2nccc(C(F)(F)F)n2)cc(-c2ccc(NC(=O)CC(=O)O)nc2)c1` [Example 8.4, 3-{[5-(3-methyl-5-{[4-(trifluoromethyl)pyrimidin-2-yl]amino}phenyl)pyridin-2-yl]amino}-3-oxopropanoic acid] the pIC50 was > 7.00.
With `O=C(O)[C@@H]1CCN1c1ccc(-c2cc(F)cc(Nc3ncc(F)c(C4CC4)n3)c2)cn1` [Example 7.160, (2S)-1-(5-{3-[(4-cyclopropyl-5-fluoropyrimidin-2-yl)amino]-5-fluorophenyl}pyridin-2-yl)azetidine-2-carboxylic acid] the pIC50 was > 7.00.
With `Cc1cc(Nc2nccc(C(F)(F)F)n2)cc(-c2ccnc(N3CCCC34CCNC4=O)c2)c1` (stereo not shown) [Example 15.36, 1-[4-(3-methyl-5-{[4-(trifluoromethyl)pyrimidin-2-yl]amino}phenyl)pyridin-2-yl]-1,7-diazaspiro[4.4]nonan-6-one] the pIC50 was 6.00 to 7.00.
`Cc1cc(Nc2nccc(C(F)(F)F)n2)cc(-c2ccc(N3CCN(S(C)(=O)=O)CC3)nc2)c1` [Example 7.48, N-(3-methyl-5-{6-[4-(methylsulfonyl)piperazin-1-yl]pyridin-3-yl}phenyl)-4-(trifluoromethyl)pyrimidin-2-amine] showed a pIC50 of 6.00 to 7.00.
With `Cc1cc(Nc2nccc(C(F)(F)F)n2)cc(-c2ccc(C34CCC(C(=O)O3)C(C)(C)C4)nc2)c1` (single isomer, unassigned) [Example 9.10, (1S,4R or 1R,4S) 5,5-dimethyl-1-[5-(3-methyl-5-{[4-(trifluoromethyl)pyrimidin-2-yl]amino}phenyl)pyridin-2-yl]-2-oxabicyclo[2.2.2]octan-3-one] the pIC50 was 6.00 to 7.00.
With `Cc1cc(Nc2nccc(C(F)(F)F)n2)cc(-c2ccnc(N[C@H]3CCC(=O)NC3)c2)c1` [Example 15.67, (5S)-5-{[4-(3-methyl-5-{[4-(trifluoromethyl)pyrimidin-2-yl]amino}phenyl)pyridin-2-yl]amino}piperidin-2-one] the pIC50 was > 7.00.
With `Cc1cc(Nc2nccc(C(F)(F)F)n2)cc(-c2ccc(C(O)C(C)(C)C(=O)O)nc2)c1` (stereo not shown) [Example 23.1, 3-Hydroxy-2,2-dimethyl-3-[5-(3-methyl-5-{[4-(trifluoromethyl)pyrimidin-2-yl]amino}phenyl)pyridin-2-yl]propanoic acid] the pIC50 was > 7.00.
`CC(=O)N1CCCN(c2ccc(-c3cc(C)cc(Nc4nccc(C(F)(F)F)n4)c3)cn2)CC1` [Example 7.59, N-{3-[6-(4-acetyl-1,4-diazepan-1-yl)pyridin-3-yl]-5-methylphenyl}-4-(trifluoromethyl)pyrimidin-2-amine] was tested, and the pIC50 was > 7.00.
`Cc1cc(Nc2nccc(C(F)(F)F)n2)cc(-c2ccc(N[C@H](CO)C(=O)O)nc2)c1` [Example 7.108, N-[5-(3-methyl-5-{[4-(trifluoromethyl)pyrimidin-2-yl]amino}phenyl)pyridin-2-yl]-D-serine] was tested, and the pIC50 was > 7.00.
For `Cc1cc(Nc2nccc(C(F)(F)F)n2)cc(-c2ccc(C(C)(O)CO)nc2)c1` (stereo not shown) [Example 9.57, 2-[5-(3-methyl-5-{[4-(trifluoromethyl)pyrimidin-2-yl]amino}phenyl)pyridin-2-yl]propane-1,2-diol], the pIC50 was > 7.00.
In the case of `Cc1cc(Nc2nccc(C(F)(F)F)n2)cc(-c2cncc(NCC(=O)O)c2)c1` [Example 15.20, N-[5-(3-methyl-5-{[4-(trifluoromethyl)pyrimidin-2-yl]amino}phenyl)pyridin-3-yl]glycine], the pIC50 was > 7.00.
With `Cc1cc(Nc2nccc(C(F)(F)F)n2)cc(-c2ccc(C(=O)N(C)CCO)nc2)c1` [Example 16.6, N-(2-hydroxyethyl)-N-methyl-5-(3-methyl-5-{[4-(trifluoromethyl)pyrimidin-2-yl]amino}phenyl)pyridine-2-carboxamide] the pIC50 was > 7.00.
`Cc1cc(Nc2nccc(C(F)(F)F)n2)cc(-c2cncc(CO)c2)c1` [Example 2.66, [5-(3-methyl-5-{[4-(trifluoromethyl)pyrimidin-2-yl]amino}phenyl)pyridin-3-yl]methanol] was tested, and the pIC50 was > 7.00.
In the case of `Cc1cc(Nc2nccc(C(F)(F)F)n2)cc(-c2ccc(N3CCNC(=O)CC3)nc2)c1` [Example 7.27, 1-[5-(3-methyl-5-{[4-(trifluoromethyl)pyrimidin-2-yl]amino}phenyl)pyridin-2-yl]-1,4-diazepan-5-one], the pIC50 was > 7.00.
For `Cc1cc(Nc2nccc(C(F)(F)F)n2)cc(-c2cncc(NCCN3CCOCC3)c2)c1` [Example 15.16], the pIC50 was > 7.00.
For `Cc1cc(Nc2nccc(C3CC3)n2)cc(-c2ccc(C(C)(O)[C@H]3CC[C@H](C(=O)O)CC3)nc2)c1` (stereo partly drawn) [Example 9.24, trans-4-[1-(5-{3-[(4-cyclopropylpyrimidin-2-yl)amino]-5-methylphenyl}pyridin-2-yl)-1-hydroxyethyl]cyclohexanecarboxylic acid], the pIC50 was > 7.00.
Work on `O=C(O)c1ccnc(-c2cccc(Nc3nccc(C(F)(F)F)n3)c2)c1` [Example 2.11, 2-(3-{[4-(trifluoromethyl)pyrimidin-2-yl]amino}phenyl)pyridine-4-carboxylic acid] yielded a pIC50 of 6.00 to 7.00.
For `Cc1cc(Nc2nccc(C(F)(F)F)n2)cc(-c2ccc(N3CCC[C@H]3C(=O)O)nc2)c1` [Example 7.84, 1-[5-(3-methyl-5-{[4-(trifluoromethyl)pyrimidin-2-yl]amino}phenyl)pyridin-2-yl]-L-proline], the pIC50 was > 7.00.
For `Cc1cc(Nc2nccc(C(F)(F)F)n2)cc(-c2ccc(NCc3cnn(C)c3)nc2)c1` [Example 7.20, N-[3-methyl-5-(6-{[(1-methyl-1H-pyrazol-4-yl)methyl]amino}pyridin-3-yl)phenyl]-4-(trifluoromethyl)pyrimidin-2-amine], the pIC50 was 6.00 to 7.00.
In the case of `Cc1cc(Nc2nccc(C(F)(F)F)n2)cc(-c2ccc(C(=O)NC(C)(C)CO)nc2)c1` [Example 16.11, N-(2-hydroxy-1,1-dimethylethyl)-5-(3-methyl-5-{[4-(trifluoromethyl)pyrimidin-2-yl]amino}phenyl)pyridine-2-carboxamide], the pIC50 was 6.00 to 7.00.
With `Cc1cc(Nc2nccc(C(F)(F)F)n2)cc(-c2ccc(NCC(C)O)nc2)c1` (stereo not shown) [Example 7.40, 1-{[5-(3-methyl-5-{[4-(trifluoromethyl)pyrimidin-2-yl]amino}phenyl)pyridin-2-yl]amino}propan-2-ol] the pIC50 was > 7.00.
`Cc1cc(Nc2nccc(C(F)(F)F)n2)cc(-c2ccc(NCC3CCC(C(=O)O)CC3)nc2)c1` (stereo not shown) [Example 7.148, 4-({[5-(3-methyl-5-{[4-(trifluoromethyl)pyrimidin-2-yl]amino}phenyl)pyridin-2-yl]amino}methyl)cyclohexanecarboxylic acid] was tested, and the pIC50 was > 7.00.
With `CC1(C)CC(O)(c2ccc(-c3cc(F)cc(Nc4nccc(C(F)(F)F)n4)c3)cn2)CCC1C(=O)O` (single isomer, unassigned) [Example 9.14, (1R,4S or 1S,4R)-4-[5-(3-fluoro-5-{[4-(trifluoromethyl)pyrimidin-2-yl]amino}phenyl)pyridin-2-yl]-4-hydroxy-2,2-dimethylcyclohexanecarboxylic acid] the pIC50 was > 7.00.
With `Cc1cc(Nc2nccc(C(F)(F)F)n2)cc(-c2ccc(N3CCC[C@@]3(C)C(=O)O)nc2)c1` [Example 7.121, 2-methyl-1-[5-(3-methyl-5-{[4-(trifluoromethyl)pyrimidin-2-yl]amino}phenyl)pyridin-2-yl]-L-proline] the pIC50 was > 7.00.
For `Cc1cc(Nc2nccc(C(F)(F)F)n2)cc(-c2ccc(C(=O)NCC(O)CCCl)nc2)c1` (stereo not shown) [Example 16.35, N-(4-chloro-2-hydroxybutyl)-5-(3-methyl-5-{[4-(trifluoromethyl)pyrimidin-2-yl]amino}phenyl)pyridine-2-carboxamide], the pIC50 was 6.00 to 7.00.
With `CCOC(=O)c1cncc(-c2cc(C)cc(Nc3nccc(C(F)(F)F)n3)c2)c1` [Example 2.68, ethyl 5-(3-methyl-5-{[4-(trifluoromethyl)pyrimidin-2-yl]amino}phenyl)pyridine-3-carboxylate] the pIC50 was > 7.00.
